Results as given in patent publication US11382956B2, “Amylin analogues” (Zealand Pharma A/S, priority 2016, dated 2022).
Numbered stars: 1 amine (or outer) side, 2 acyl side, 3 side chain; on linkers, the order of the positions; unused ones are H or OH. Bridge positions count the residues as written; N and C are the ends. Square brackets hold non-standard residues; d marks the D form. Peptide text beside a SMILES is read from it. * marks the point of attachment. C20 diacid = O=C(O)CCCCCCCCCCCCCCCCCCC(=O)*; γGlu = O=C(O)[C@H](CCC(=O)[*:2])N[*:1]; Hyp = O=C(O)[C@@H]1C[C@@H](O)CN1; NMeI = CC[C@H](C)[C@H](NC)C(=O)O; Orn = NCCC[C@H](N)C(=O)O; Sar = CNCC(=O)O

Assays:
[1] = Pharmacokinetic (PK) profiling in rats; settings: male, Sprague Dawley, plasma; rat, single sc bolus 30 nmol/kg; read-out: in vivo half life t1/2 (plasma terminal elimination half-life) (converted)
Method: Sprague Dawley male rats were given a single subcutaneous (sc) bolus of each peptide to be tested, as specified below.
30 nmol/kg doses of compound were administered. Blood samples were drawn from the tail vein prior to dosing and at 24 and 96 hours after dosing. The rats were euthanized immediately after the last blood sampling by concussion and cervical dislocation.
The dosing vehicle used for each test peptide was a mannitol-containing histidine buffer (pH 7.0). Plasma samples were analyzed after precipitation with ethanol by liquid chromatography mass spectrometry (LC-MS/MS). Mean plasma concentrations were used for calculation of the pharmacokinetic parameters.
Plasma terminal elimination half-life (t1/2) was determined as In(2)/λz, where λz is the magnitude of the slope of the log linear regression of the log concentration versus time profile during the terminal phase.

[2] = Assessment of physical stability: fibril formation by Thioflavin T fluorescence; type: physicochemical; set-up: key: FND = fibrillation not detected; FD = fibrillation detected; settings: 1 mg/mL peptide; for Fibrillation (in buffer) pH4 acetate: 50 mM acetate buffer pH 4.0, 96 hours at 40° C.; for Fibrillation (in buffer) pH7 histidine: 50 mM histidine buffer pH 7.0, 96 hours at 40° C.; for Fibrillation (in buffer) pH7 phosphate: 50 mM phosphate buffer pH 7.0, 96 hours at 40° C.
Procedure, shortened: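 Fibrillation detected (FD) means a significant rise in ThT fluorescence over 96 hours at 40° C, read at 10 min intervals each preceded by 300 s automixing. Samples: 1 mg/mL peptide, 40 μM ThT, in 50 mM phosphate or histidine (pH 7.0) or acetate (pH 4.0), triplicate.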

[3] = Assessment of chemical stability in 40 mM buffers at 40° C. (RP-HPLC); type: physicochemical; settings: 1 mg/mL; for % degradation after 72 h at 40° C. pH4 acetate: acetate buffer pH 4, 72 h; for % degradation after 72 h at 40° C. pH6 phosphate: phosphate buffer pH 6, 72 h; for % degradation after 14 days at 40° C. pH6 phosphate: phosphate buffer pH 6, 14 days; for % degradation after 72 h at 40° C. pH7 phosphate: phosphate buffer pH 7, 72 h; for % degradation after 14 days at 40° C. pH4 acetate: acetate buffer pH 4, 14 days; for % degradation after 14 days at 40° C. pH7 phosphate: phosphate buffer pH 7, 14 days
Procedure, shortened: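 Degradation is the main-peak area-% at each time point minus that at t=0, measured by C8 reversed-phase HPLC (TFA/acetonitrile/water gradient, 220 nm). Incubation at 40° C for 3 or 14 days, 1 mg/mL peptide in 40 mM buffer at pH 4, 6 or 7.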

[4] = Effect on acute food intake and body weight in normal Sprague Dawley rats; type: in vivo, Sprague Dawley (SD) rats; settings: Dose: 30 nmol/kg sc, vehicle-corrected
Source text: Sprague Dawley (SD) rats were obtained from Janvier Labs, France. The animals arrived at least 14 days before the study start to allow acclimatization to experimental conditions. From arrival and throughout the study, the rats were housed in groups of 2 to 4 (n=2-4) in a light-, temperature- and humidity-controlled room. Animals had access ad libitum to food (KLIBA 3430, Provimi Kliba AG, Switzerland) and water (domestic quality tap water) during the entire study. Per group 6-8 rats were included. A vehicle group and positive control group were included in each set of tests. […] Dosing volume was 2 ml/kg. Food intake was recorded online using an automated food intake system (HM02, MBRose, Denmark) for 4 days or manually at 0 h for a predose and then 24, 48, 72 and 96 h post dosing. Body weight was measured daily.
Statistical analyses were performed using GraphPad™ Prism version 7. The measured parameters were compared using two-way ANOVA followed by Dunnett's multiple comparison tests. Differences were considered statistically significant at p<0.05.

[5] = molecular target: T1, recombinant human calcitonin receptor (hCT-R) (Homo sapiens, UniProt P30988); experiment: hCT-R cAMP assay (AlphaScreen) in 1321N1 cells; type: cell-based; settings: cAMP formation, 45 min stimulation
T1 construct: host or cells: human astrocytoma cell line 1321N1
T1 sequence (P30988 25-474): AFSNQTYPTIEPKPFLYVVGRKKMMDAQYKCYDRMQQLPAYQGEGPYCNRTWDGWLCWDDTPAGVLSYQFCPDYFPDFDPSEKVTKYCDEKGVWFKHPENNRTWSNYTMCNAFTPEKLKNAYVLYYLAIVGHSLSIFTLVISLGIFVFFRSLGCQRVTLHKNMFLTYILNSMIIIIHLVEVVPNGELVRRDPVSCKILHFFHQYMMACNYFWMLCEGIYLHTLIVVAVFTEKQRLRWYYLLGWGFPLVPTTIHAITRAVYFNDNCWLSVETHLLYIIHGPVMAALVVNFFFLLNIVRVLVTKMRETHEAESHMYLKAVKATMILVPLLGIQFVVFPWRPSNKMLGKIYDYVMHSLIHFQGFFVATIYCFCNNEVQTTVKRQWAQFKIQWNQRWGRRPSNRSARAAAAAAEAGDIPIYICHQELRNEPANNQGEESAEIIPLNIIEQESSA
Procedure, shortened: (§1)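 EC50 values come from curve fits over at least 7 peptide concentrations, with cAMP read by AlphaScreen competition after 1 h in the dark. Cells were 1321N1 lines carrying human calcitonin receptor, with RAMP3 co-expressed for AMY3, treated 45 min at room temperature in the presence of IBMX.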

[6] = molecular target: T2, recombinant human amylin 3 receptor (hAMYR3) (Homo sapiens, UniProt O60896+P30988); experiment: hAMYR3 cAMP assay (AlphaScreen) in 1321N1 cells; type: cell-based; settings: cAMP formation, 45 min stimulation
T2 construct: host or cells: human astrocytoma cell line 1321N1
T2 sequence (P30988 25-474): T1 sequence (P30988 25-474)
T2 sequence (O60896 24-148 partner): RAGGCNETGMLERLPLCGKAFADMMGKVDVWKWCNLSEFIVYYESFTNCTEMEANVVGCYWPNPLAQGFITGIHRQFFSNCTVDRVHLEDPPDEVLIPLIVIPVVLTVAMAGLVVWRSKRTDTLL
Procedure, shortened: as §1

Row | half-life [1] | Fibrillation (in buffer) pH4 acetate [2] | Fibrillation (in buffer) pH7 histidine [2] | Fibrillation (in buffer) pH7 phosphate [2] | % degradation after 72 h at 40° C. pH4 acetate [3] | % degradation after 72 h at 40° C. pH6 phosphate [3] | % degradation after 14 days at 40° C. pH6 phosphate [3] | % degradation after 72 h at 40° C. pH7 phosphate [3] | EC50 [5] | EC50 [6] | % degradation after 14 days at 40° C. pH4 acetate [3] | % degradation after 14 days at 40° C. pH7 phosphate [3] | SMILES | Body weight reduction in % at 48 h [4] | Food intake reduction in % at 48 h [4]
1 | 21.3 h | FND | FND | FD | <1% | 3.2% | 1.0% | 1.2% | 0.081 nM | 0.035 nM | – | – | CC[C@H](C)[C@@H](C(=O)N[C@@H](CC(C)C)C(=O)N[C@@H](CO)C(=O)N[C@@H](CO)C(=O)N[C@H](C(=O)N[C@@H](CCC(=O)O)C(=O)N[C@H](C(=O)NCC(=O)N[C@@H](CO)C(=O)N[C@@H](CC(N)=O)C(=O)N[C@H](C(=O)N1C[C@H](O)C[C@H]1C(N)=O)[C@@H](C)O)C(C)C)[C@@H](C)O)N(C)C(=O)[C@H](C)NC(=O)CN(C)C(=O)[C@H](Cc1ccccc1)NC(=O)[C@H](CO)NC(=O)[C@H](CO)NC(=O)[C@H](CCCNC(=N)N)NC(=O)[C@H](CCC(N)=O)NC(=O)[C@H](CC(C)C)NC(=O)[C@H](Cc1ccccc1)NC(=O)[C@H](Cc1c[nH]cn1)NC(=O)[C@H](C)NC(=O)[C@H](CC(C)C)NC(=O)[C@H](CCCNC(=N)N)NC(=O)[C@H](CCC(=O)O)NC(=O)[C@@H](NC(=O)[C@H](C)NC(=O)[C@@H]1CCCNC(=O)C[C@H](NC(=O)[C@H](CCCNC(=N)N)NC(=O)CC[C@H](NC(=O)CCCCCCCCCCCCCCCCCCC(=O)O)C(=O)O)C(=O)NCC(=O)N[C@@H]([C@@H](C)O)C(=O)N[C@@H](C)C(=O)N[C@@H]([C@@H](C)O)C(=O)N1)[C@@H](C)O [Compound 3, [19CD]-isoGlu-RD()GTAT-Orn()-ATERLAHFLQRSSF-Gly(Me)-A-Ile(Me)-LSSTEVGSNT-Hyp-NH2] ({C20 diacid-γGlu}-RDGTAT[Orn]ATERLAHFLQRSSF[Sar]A[NMeI]LSSTEVGSNT[Hyp]-NH2; lactam 2-7) | 5.6% | 34%
2 | 31.9 h | FND | FND | FND | <1% | <1% | <1% | <1% | 0.16 nM | 0.092 nM | 1.6% | 6.4% | CC[C@H](C)[C@@H](C(=O)N[C@@H](CC(C)C)C(=O)N[C@@H](CO)C(=O)N[C@@H](CO)C(=O)N[C@H](C(=O)N[C@@H](CCC(=O)O)C(=O)N[C@H](C(=O)NCC(=O)N[C@@H](CO)C(=O)N[C@@H](CC(N)=O)C(=O)N[C@H](C(=O)N1C[C@H](O)C[C@H]1C(N)=O)[C@@H](C)O)C(C)C)[C@@H](C)O)N(C)C(=O)[C@H](C)NC(=O)CN(C)C(=O)[C@H](Cc1ccccc1)NC(=O)[C@H](CO)NC(=O)[C@H](CO)NC(=O)[C@H](CCCNC(=N)N)NC(=O)[C@H](CCC(N)=O)NC(=O)[C@H](CC(C)C)NC(=O)[C@H](Cc1ccccc1)NC(=O)[C@H](Cc1c[nH]cn1)NC(=O)[C@H](C)NC(=O)[C@H](CC(C)C)NC(=O)[C@H](CCCNC(=N)N)NC(=O)[C@H](CCC(=O)O)NC(=O)[C@@H](NC(=O)[C@H](C)NC(=O)[C@@H]1CCCNC(=O)C[C@H](NC(=O)[C@H](CCCNC(=N)N)NC(=O)CC[C@H](NC(=O)CC[C@H](NC(=O)CCCCCCCCCCCCCCCCCCC(=O)O)C(=O)O)C(=O)O)C(=O)NCC(=O)N[C@@H]([C@@H](C)O)C(=O)N[C@@H](C)C(=O)N[C@@H]([C@@H](C)O)C(=O)N1)[C@@H](C)O [Compound 4, [19CD]-isoGlu-isoGlu-RD()GTAT-Orn()-ATERLAHFLQRSSF-Gly(Me)-A-Ile(Me)-LSSTEVGSNT-Hyp-NH2] ({C20 diacid-γGlu-γGlu}-RDGTAT[Orn]ATERLAHFLQRSSF[Sar]A[NMeI]LSSTEVGSNT[Hyp]-NH2; lactam 2-7) | 4.6% | 34%
3 | 30.1 h | FND | FND | FND | <1% | <1% | 1.0% | <1% | 0.085 nM | 0.031 nM | <1% | 1.9% | CC[C@H](C)[C@@H](C(=O)N[C@@H](CC(C)C)C(=O)N[C@@H](CO)C(=O)N[C@@H](CO)C(=O)N[C@H](C(=O)N[C@@H](CCC(=O)O)C(=O)N[C@H](C(=O)NCC(=O)N[C@@H](CO)C(=O)N[C@@H](CC(N)=O)C(=O)N[C@H](C(=O)N1C[C@H](O)C[C@H]1C(N)=O)[C@@H](C)O)C(C)C)[C@@H](C)O)N(C)C(=O)[C@H](C)NC(=O)CN(C)C(=O)[C@H](Cc1ccccc1)NC(=O)[C@H](CO)NC(=O)[C@H](CO)NC(=O)[C@H](CCCNC(=N)N)NC(=O)[C@H](CCC(N)=O)NC(=O)[C@H](CC(C)C)NC(=O)[C@H](Cc1ccccc1)NC(=O)[C@H](Cc1c[nH]cn1)NC(=O)[C@H](C)NC(=O)[C@H](CC(C)C)NC(=O)[C@H](CCCNC(=N)N)NC(=O)[C@H](CCC(=O)O)NC(=O)[C@@H](NC(=O)[C@H](C)NC(=O)[C@@H]1CCCCNC(=O)C[C@H](NC(=O)[C@H](CCCNC(=N)N)NC(=O)CC[C@H](NC(=O)CCCCCCCCCCCCCCCCCCC(=O)O)C(=O)O)C(=O)NCC(=O)N[C@@H]([C@@H](C)O)C(=O)N[C@@H](C)C(=O)N[C@@H]([C@@H](C)O)C(=O)N1)[C@@H](C)O [Compound 18, [19CD]-isoGlu-RD()GTATK()ATERLAHFLQRSSF-Gly(Me)-A-Ile(Me)-LSSTEVGSNT-Hyp-NH2] ({C20 diacid-γGlu}-RDGTATKATERLAHFLQRSSF[Sar]A[NMeI]LSSTEVGSNT[Hyp]-NH2; lactam 2-7) | 10% | 58%
